Source: publication PMC4745082, “A Novel PET Imaging Probe for the Detection and Monitoring of Translocator Protein 18 kDa Expression in Pathological Disorders” (Scientific Reports, 2016)
“Also recorded” adds a separate entry of the source.

Columns and labels:
[1] = Log D determination (n-octanol / sodium phosphate buffer pH 7.4); assay type: physicochemical; details: n-octanol / sodium phosphate buffer 0.15 M pH 7.4, measured four times
Method: After vortexing for 1 min, each tube was then stored for 3 min at room temperature and the phases were separated. Samples of each phase (100 μL) were counted for radioactivity. Log D is expressed as the logarithm of the ratio of the counts from n-octanol versus that of the sodium phosphate buffer.

[2] = molecular target: TSPO (Rattus norvegicus, UniProt P16257); test: microPET in LPS-induced neuroinflammation rat model; assay type: in vivo; parameters: from tissue; host or cells: Living rat brain (ipsilateral and contralateral striatum), LPS-injected Sprague-Dawley rats
TSPO, sequence (P16257 whole entry): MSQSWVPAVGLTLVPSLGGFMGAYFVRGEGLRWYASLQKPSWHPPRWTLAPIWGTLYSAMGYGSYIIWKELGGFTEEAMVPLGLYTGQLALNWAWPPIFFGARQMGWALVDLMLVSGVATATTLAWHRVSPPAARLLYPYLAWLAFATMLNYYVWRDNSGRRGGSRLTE
Method: Male Sprague-Dawley rats weighing 200–250 g were used for the brain inflammation model and neuroinflammation was induced using lipopolysaccharide (LPS; Sigma-Aldrich, St. Louis, MO, U.S.A.) as previously described. In all rats used for sequential PET scans, microglia activation between the ipsilateral and contralateral areas was determined by CD68 immunohistochemical staining.
Five LPS-induced neuroinflammation rats (219.2 ± 14.1 g) were used for brain PET imaging at 4 days post-LPS injection. Before the scan, the rats were anesthetized with 2% isoflurane in a 7:3 mixture of N2/O2. PET imaging of the rat brain was performed in a dedicated small animal PET/CT (NanoPET/CT, Bioscan, Inc., U.S.A.) with a 10-cm axial field-of-view (FOV) and a 12-cm transaxial FOV. […] To determine the TSPO selectivity and TSPO specificity of the PET images, flumazenil (5 mg/kg intravenously) was administered at 15 min post [^18F]CB251 injection via jugular catheter. Subsequently, PBR28 (5 mg/kg intravenously) was injected 30 min later via jugular catheter in the same LPS-induced neuroinflammation rat model. Three human glioblastoma U87-MG-bearing mice were used for TSPO-rich cancer PET imaging. PET scans of the mice, anesthetized with 2% isoflurane, were performed with a 9.3-cm axial, 8.4-cm trans-axial FOV scanner. At the end of each study, the list-mode data were sorted into a dynamic scan consisting of 54 frames for 90 min. The acquired images were reconstructed by the 3-D Adjoints Monte Carlo method, which included scatter and random corrections. A region of interest (ROI) with a 2-mm radius was delineated in the ipsilateral lesioned striatum by the intensely visualized region in the summed image of all the frames. Regional uptake of radioactivity was decay-corrected to the injection time and was expressed as the standardized uptake value (SUV), which was normalized to the injected radioactivity and animal body weight. Analysis of the PET images was performed using PMOD software v.3.1 (PMOD Technologies Ltd., Zurich, Switzerland). The time activity curve (TAC) representing the variation in radioligand concentration according to the time-course was estimated for the ipsilateral striatum.

[3] = assay type: in vitro ADME; details: 2 h
Method: The in vitro stability of [^18F]CB251 was assayed by monitoring both the radio-TLC and the radio-HPLC profiles to determine its radiochemical purity. To assess the in vitro serum stability, 100 μL of [^18F]CB251 in 10% EtOH/saline was incubated with 0.5 mL of human serum from a healthy volunteer for 2 h at 37 °C and the solution was analysed at 0, 10, 30, 60 and 120 min by a radio-TLC scanner using MeOH-CH2Cl2 (5:95) as the developing solvent. Separately, 100 μL of [^18F]CB251 in 10% EtOH/saline was also incubated with 0.9 mL of human serum from a healthy volunteer for 2 h at 37 °C. Aliquots (200 μL) were taken from the sample at time points of 0, 30, 60 and 120 min and mixed with absolute acetonitrile (200 μL). The mixture was centrifuged (3500 rpm, 5 min) to precipitate out serum proteins. The resulting supernatant including the authentic CB251 (1.0 mg/2.0 mL of CH3CN, 20 μL) was filtered through a 0.45 μm GH Polypro (GHP) membrane Disc filter before HPLC analysis to determine the fraction of intact radiotracer. Samples were analysed by HPLC (Waters, Xterra RP-18, 5 μm, 4.6 × 250 mm; eluant: 60% CH3CN/H2O; flow rate: 1 mL/min; guard column 10 × 10 mm).

CCCN(CCC)C(=O)Cc1c(-c2ccc(OCC[18F])cc2)nc2c(Cl)cc(Cl)cn12 [[^18F]CB251, 2-(2-(4-(2-[^18F]fluoroethoxy)phenyl)-6,8-dichloroimidazo[1,2-a]pyridin-3-yl)-N,N-dipropylacetamide]
logD [1]: 3 ± 0.03
uptake ratio between the ipsilateral area and the contralateral area ([2]; 30 min post injection): 2.35 times
uptake of [18F]CB251 in the ipsilateral area after PBR28 injection ([2]; displacement, PBR28 5 mg/kg intravenously 30 min after flumazenil): decreased significantly; also recorded: significantly decreased
uptake of [18F]CB251 in the ipsilateral region after flumazenil ([2]; displacement, flumazenil 5 mg/kg intravenously at 15 min post injection): did not prevent the uptake
binding potential of the specifically bound radioligand relative to the non-displaceable radioligand in tissue (BPND) ([2]; ipsilateral striatum, contralateral striatum as reference, Logan plot with reference tissue input): 1.83 ± 0.18
uptake in the skull ([2]; summed microPET images): no significant uptake
radioactive parent remaining in human serum [3]: greater than 99%
